For this assay, the target named is H1047R PIK3CA enzyme (Homo sapiens, UniProt P42336, H1047R). Put plainly: ADP-Glo Biochemical PIK3CA Kinase Assay.
Chain of H1047R PIK3CA enzyme (P42336 whole entry H1047R): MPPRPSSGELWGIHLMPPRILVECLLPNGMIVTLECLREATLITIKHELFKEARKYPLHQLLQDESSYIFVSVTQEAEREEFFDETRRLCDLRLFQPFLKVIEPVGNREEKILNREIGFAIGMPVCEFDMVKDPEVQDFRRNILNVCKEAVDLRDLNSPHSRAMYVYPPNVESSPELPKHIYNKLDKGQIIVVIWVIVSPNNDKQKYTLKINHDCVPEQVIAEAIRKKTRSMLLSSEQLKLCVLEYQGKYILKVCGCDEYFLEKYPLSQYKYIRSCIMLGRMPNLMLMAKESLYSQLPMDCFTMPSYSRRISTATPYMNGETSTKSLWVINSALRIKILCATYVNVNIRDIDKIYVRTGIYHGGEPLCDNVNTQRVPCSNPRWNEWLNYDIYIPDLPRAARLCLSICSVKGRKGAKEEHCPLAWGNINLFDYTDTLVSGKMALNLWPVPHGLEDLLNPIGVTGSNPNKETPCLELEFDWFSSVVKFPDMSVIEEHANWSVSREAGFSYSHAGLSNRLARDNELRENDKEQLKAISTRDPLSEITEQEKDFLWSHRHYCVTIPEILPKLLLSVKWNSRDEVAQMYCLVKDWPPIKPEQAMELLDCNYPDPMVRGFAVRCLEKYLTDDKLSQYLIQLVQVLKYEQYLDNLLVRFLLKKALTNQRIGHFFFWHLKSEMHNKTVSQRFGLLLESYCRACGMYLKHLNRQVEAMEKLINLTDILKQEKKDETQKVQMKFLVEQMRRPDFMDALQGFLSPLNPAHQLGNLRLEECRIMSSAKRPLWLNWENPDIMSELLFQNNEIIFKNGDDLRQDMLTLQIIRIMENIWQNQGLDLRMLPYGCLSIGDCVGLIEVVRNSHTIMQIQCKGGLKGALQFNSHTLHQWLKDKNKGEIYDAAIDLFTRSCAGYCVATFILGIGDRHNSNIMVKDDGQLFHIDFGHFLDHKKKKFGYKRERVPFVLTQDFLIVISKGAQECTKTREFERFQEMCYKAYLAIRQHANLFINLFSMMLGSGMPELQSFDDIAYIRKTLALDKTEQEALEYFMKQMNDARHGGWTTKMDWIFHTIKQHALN
Chain of H1047R PIK3CA enzyme (P27986 whole entry partner): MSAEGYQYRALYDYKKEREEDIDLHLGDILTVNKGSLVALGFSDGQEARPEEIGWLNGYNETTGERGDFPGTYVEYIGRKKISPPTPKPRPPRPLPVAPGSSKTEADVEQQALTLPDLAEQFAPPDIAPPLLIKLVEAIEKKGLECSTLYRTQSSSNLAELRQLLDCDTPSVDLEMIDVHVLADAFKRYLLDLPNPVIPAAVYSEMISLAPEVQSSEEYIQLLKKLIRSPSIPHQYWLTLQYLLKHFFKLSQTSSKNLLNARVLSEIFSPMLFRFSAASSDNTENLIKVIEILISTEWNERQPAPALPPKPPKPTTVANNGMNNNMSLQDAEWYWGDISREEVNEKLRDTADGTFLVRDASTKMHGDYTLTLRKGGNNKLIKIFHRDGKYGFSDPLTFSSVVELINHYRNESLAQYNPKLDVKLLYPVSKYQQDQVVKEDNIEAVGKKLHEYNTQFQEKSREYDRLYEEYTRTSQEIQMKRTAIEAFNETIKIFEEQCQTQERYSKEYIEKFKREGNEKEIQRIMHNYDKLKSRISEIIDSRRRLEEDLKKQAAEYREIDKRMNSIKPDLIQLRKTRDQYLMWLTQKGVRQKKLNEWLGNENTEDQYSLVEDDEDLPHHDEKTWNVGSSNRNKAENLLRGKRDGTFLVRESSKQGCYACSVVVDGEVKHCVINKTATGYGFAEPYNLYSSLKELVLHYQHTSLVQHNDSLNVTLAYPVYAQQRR
`O=C(Nc1cc(NC2=NC[C@H](C(F)(F)F)O2)cc2c1[C@H](c1cc(F)ccc1Cl)NC2=O)c1cc(F)cc(C(F)(F)F)c1` (single isomer, unassigned) [Compound I-2323] gave an IC50 of 100 to 500 nM. With `O=C(Nc1cc(NC2=NC[C@H](C(F)(F)F)O2)cc2c1[C@@H](c1cc(F)ccc1Cl)NC2=O)c1cc(F)cc(C(F)(F)F)c1` (single isomer, unassigned) [Compound I-2325] the figure was 1000 to 10000 nM; with `O=C(Nc1cc(NC2=NC[C@@H](C(F)(F)F)O2)cc2c1[C@@H](c1cc(F)ccc1Cl)NC2=O)c1cc(F)cc(C(F)(F)F)c1` (single isomer, unassigned) [Compound I-2326], 1000 to 10000 nM. As for `O=C1NC(c2cc(F)ccc2Cl)c2c(NC(=O)N3CCC4C3[C@H]4C(F)(F)F)cccc21` (single isomer, unassigned) [Compound I-2328], the figure is 10000 to 100000 nM; as for `O=C1NC(c2cc(F)ccc2Cl)c2c(NC(=O)N3CCC4C3[C@@H]4C(F)(F)F)cccc21` (single isomer, unassigned) [Compound I-2329], 1000 to 10000 nM; as for `O=C1N[C@H](c2cc(F)ccc2Cl)c2c(NC(=O)N3C[C@@H](C(F)F)c4ccccc43)cccc21` (single isomer, unassigned) [Compound I-2331], 1000 to 10000 nM. In turn, `O=C1N[C@@H](c2cc(F)ccc2Cl)c2c(NC(=O)N3C[C@H](C(F)F)c4ccccc43)cccc21` (single isomer, unassigned) [Compound I-2332] gave a 50% inhibitory concentration (IC50) of 1000 to 10000 nM.

Molecule `CC[C@H](CC(=O)Nc1cccc2c1[C@H](c1cc(F)ccc1Cl)NC2=O)[C@@H](C)C(F)(F)F` (single isomer, unassigned) [Compound I-2335] showed an IC50 of 1000 to 10000 nM.

`CC[C@@H](CC(=O)Nc1cccc2c1[C@H](c1cc(F)ccc1Cl)NC2=O)[C@H](C)C(F)(F)F` (single isomer, unassigned) [Compound I-2336]: the 50% inhibitory concentration (IC50) lay in the range of 1000 to 10000 nM. As for `CC[C@@H](CC(=O)Nc1cccc2c1[C@@H](c1cc(F)ccc1Cl)NC2=O)[C@H](C)C(F)(F)F` (single isomer, unassigned) [Compound I-2337], the figure is 10000 to 100000 nM.

In turn, `CC[C@H](CC(=O)Nc1cccc2c1[C@@H](c1cc(F)ccc1Cl)NC2=O)[C@@H](C)C(F)(F)F` (single isomer, unassigned) [Compound I-2338] showed a 50% inhibitory concentration (IC50) of 10000 to 100000 nM. `O=C1N[C@@H](c2cc(F)ccc2Cl)c2c(NC(=O)N3C[C@H](O)c4cc(F)ccc43)cc(-n3nccn3)cc21` (single isomer, unassigned) [Compound I-2342] came in with an IC50 of 100 to 500 nM. As for `O=C1N[C@@H](c2cc(F)ccc2Cl)c2c(NC(=O)N3C[C@H](O)c4cc(F)ccc43)cc(-n3nccn3)cc21` (single isomer, unassigned) [Compound I-2343], the figure is 1000 to 10000 nM. In turn, `O=C1N[C@H](c2cc(F)ccc2Cl)c2c(NC(=O)N3C[C@@H](O)c4cc(F)ccc43)cc(-n3nccn3)cc21` (single isomer, unassigned) [Compound I-2344] returned an IC50 of 1000 to 10000 nM.

In turn, `O=C1N[C@H](c2cc(F)ccc2Cl)c2c(NC(=O)N3C[C@@H](O)c4cc(F)ccc43)cc(-n3nccn3)cc21` (single isomer, unassigned) [Compound I-2345] returned an IC50 of 1000 to 10000 nM. With `N#CCCc1cc(NC(=O)N2C[C@@H](O)c3cc(F)ccc32)c2c(c1)C(=O)N[C@H]2c1cc(F)ccc1Cl` (single isomer, unassigned) [Compound I-2347] the figure was 100 to 500 nM; with `N#CCCc1cc(NC(=O)N2C[C@@H](O)c3cc(F)ccc32)c2c(c1)C(=O)N[C@@H]2c1cc(F)ccc1Cl` (single isomer, unassigned) [Compound I-2348], 1000 to 10000 nM; with `N#CCCc1cc(NC(=O)N2C[C@H](O)c3cc(F)ccc32)c2c(c1)C(=O)N[C@@H]2c1cc(F)ccc1Cl` (single isomer, unassigned) [Compound I-2349], 1000 to 10000 nM.

`O=C1N[C@@H](c2cc(F)ccc2Cl)c2c(NC(=O)N3C[C@@H](O)c4cc(F)ccc43)cc(-n3ccccc3=O)cc21` (single isomer, unassigned) [Compound I-2351] registered an IC50 of 100 to 500 nM.

These data come from US12581252B2, “Substituted pyrrolo[3,4-b]pyridines as PI3K-α inhibitors” (Relay Therapeutics, Inc., priority 2020, dated 2026).
